From paper PMC9635468, “Biological evaluation, docking studies, and in silico ADME prediction of some pyrimidine and pyridine derivatives as potential EGFR^WT and EGFR^T790M inhibitors” (Journal of Enzyme Inhibition and Medicinal Chemistry, 2022)

System: MCF7, H460, FADU, HEP2, HEPG2, HCT 116, Caco2, and Vero cells
Assay: Oxidative stress assessment (MDA, NO, SOD, GSH)
Type: cell-based
Settings: dose IC50, 48 h
Experimental: Consequently, both compounds 8 and 14 were tested for their antioxidant activity in MCF7, H460, FADU, HEP2, HEPG2, HCT 116, Caco2, and Vero cells, and the dose used was the IC50 in all cell lines.
SI 2: Oxidative stress assessment
SI 2A: Determination of malondialdehyde content (MDA)
Lipid peroxidation products were quantified by measuring MDA level in cell culture lysate of control and treated cells using Lipid Peroxidation (MDA) Assay Kit (Sigma Aldrich Chemical Co., St.
Louis, USA) following the manufacturer’s instructions. The MDA level was calculated relative to the corresponding protein content. The absorbance was determined at 532 nm using a spectrophotometer (Spectronic, Milton Roy Co., USA).
SI 2B: Determination of superoxide dismutase (SOD)
[…] in cell culture lysate of control and treated cells by SOD determination kit (Sigma Aldrich Chemical Co., St. Louis, USA) following the manufacturer’s instructions. SOD level was calculated relative to the corresponding protein content. The absorbance of the supernatant was determined at 450 nm using a spectrophotometer (Spectronic, Milton Roy Co., USA) 2. The experiment was carried out three independent times.
SI 2C: Determination of reduced glutathione (GSH) content
Reduced glutathione was determined by adopting Ellman’s method. MCF7 and LCC2 cells were harvested, the protein was precipitated with trichloroacetic acid, and Ellman’s reagent [5,5-dithiobis-(2-nitrobenzoic acid)] (Sigma Aldrich Chemical Co, St. Louis, USA) was added to the supernatant. The absorbance was read at 405 nm and total SH was calculated as µM of GSH/mg protein 3.
SI 2D: Determination of nitric oxide (NO) content
Nitric oxide was determined in the culture media of the control and treated cells a s described before
4. Briefly, 0.5 ml cold absolute ethanol was added to 250µl culture media then left for 48 h at 4 °C to attain complete protein precipitation followed by centrifugation at 13,000 rpm for 1 h using a cooling centrifuge.
100 μl of nitrate standard solution were serially diluted in duplicate in a 96 -well microplate. Then, 100 μl of vanadium chloride were added to each well rapidly followed by 50 μl sulfanilamide and 50µl n -(1-naphthyl) ethylenediamine in 2 N hydrochloric acid. The absorbance at 540 nm was measured spectrophotometrically using an ELISA microplate reader (TECAN SunriseTM, Germany) following an incubation period of 30 min. The level of total nitrite/nitrate was expressed as µM and determined using […]

SMILES | effect on oxidative state (MDA, NO, SOD, GSH) (Caco2) | effect on oxidative state (MDA, NO, SOD, GSH) (all tested cell lines except Caco2) | effect on oxidative state (MDA, NO, SOD, GSH) (FADU and Caco2) | effect on oxidative state (MDA, NO, SOD, GSH) (MCF7, H460, HEP2, HEPG2, HCT, and Vero cells)
Oc1n[nH]c2nc(-c3ccco3)cc(-c3cccs3)c12 [Compound 8] | antioxidant effect | pro-oxidant effect |  | 
N#Cc1c(-c2cccs2)cc(-c2ccco2)[nH]c1=O [Compound 14] |  |  | anti-oxidant effect | pro-oxidant effect
